From article PMC5344293, “A phase 1 dose-escalation and expansion study of binimetinib (MEK162), a potent and selective oral MEK1/2 inhibitor” (British Journal of Cancer, 2017)
Values joined by “and” are separate entries in the source; they are usually repeats but may differ in a detail not shown here. Equal entries are not always repeated. “Also recorded” adds a separate entry of the source. Where two headings read alike, the source gives them in different places.

Assays:
[1] = target: purified MEK enzyme; parameters: method as in Lee et al, 2010; Woessner et al, 2010; conditions: ref Lee et al, 2010, Woessner et al, read-out: half-maximal inhibitory concentration; cited from earlier work
[2] = test system: xenograft models derived from melanoma, colorectal cancer, NSCLC, fibrosarcoma, cholangiocarcinoma, and pancreatic cancer; parameters: method as in Lee et al, 2010; Woessner et al, 2010; conditions: non-clinical data, ref Lee et al, 2010, Woessner et al; cited from earlier work
[3] = test system: ERK phosphorylation; parameters: method as in Lee et al, 2010; conditions: human cell lines; ref Lee et al, 2010; cited from earlier work
[4] = parameters: method as in Watanabe et al, 2016; conditions: BID; Japanese patients with advanced solid tumours; ref Watanabe et al, 2016; cited from earlier work
[5] = test system: NRAS-mutant melanoma; parameters: method as in Ascierto et al, 2013; Van Herpen et al, 2015; conditions: patients with advanced NRAS-mutant melanoma; ref Ascierto et al, 2013; Van Herpen et al, 2015; cited from earlier work
[6] = test system: C-reactive protein, interferon, IL-10, IL-12p70, IL-1β, IL-6, or IL-8; assay: Serum cytokines other than TNF-α; assay type: in vivo, human
[7] = test system: advanced solid tumours; assay: Tumour response, RECIST version 1.1; assay type: in vivo, human
Experimental: Efficacy was assessed through radiologic scans and clinical measurements of disease sites (if applicable), and evaluation of serologic tumour markers in patient blood samples as appropriate for tumour type. Tumour assessments were performed within 21 days before the first dose and then every 6 weeks starting at the end of cycle 2. Tumour response was evaluated by the investigator using Response Evaluation Criteria in Solid Tumours (RECIST) version 1.1 criteria. Tumour marker levels were incorporated into the overall response assessment per RECIST.
All patients who received ⩾1 dose of binimetinib were included in the safety analysis. Patients in the safety analysis who had ⩾1 measurable lesion at baseline and at least 1 post-baseline disease assessment were evaluable for efficacy. Kaplan–Meier estimates of progression-free survival (PFS) and overall survival (OS) were performed for patients in the expansion phase ([Kaplan and Meier, 1958]) using SAS Version 9.2 (SAS Institute Inc., Cary, NC, USA).

[8] = Plasma pharmacokinetics in patients; assay type: in vivo, human; conditions: for RAUC (accumulation ratio) / Cmax / AUC(0-t): geometric mean (% CV); for Cmax / AUC(0-t) / Tmax: human, plasma, oral
Experimental: Blood for plasma binimetinib and metabolite concentration assessments was collected on cycle 1 day 1 (pre-dose and 30 min to 24 h post dose), cycle 1 day 15 (pre-dose and 30 min to 8 h post dose), and cycles 2 to 8 day 1 (pre-dose) from patients in the dose-escalation phase and from selected patients in the biliary cancer cohort of the expansion phase (intensive pharmacokinetic sampling). The remaining patients in the expansion phase underwent limited pharmacokinetic sampling on cycle 1 day 1 (pre-dose), cycle 1 day 8 (pre-dose), cycle 1 day 15 (pre-dose and 30 min to 8 h post dose), cycle 2 day 1 (pre-dose), cycle 3 day 1 (pre-dose and 30 min to 8 h post dose), and cycles 4–8 day 1 (pre-dose). Standard non-compartmental pharmacokinetic parameters were calculated on serial pharmacokinetic collection days (cycle 1 day 1 and cycle 1 day 15 for the dose-escalation phase; cycle 1 day 15 and cycle 3 day 1 for the expansion phase) for each patient and summarised by cohort. Dose proportionality, accumulation, and metabolite-to-parent ratio were assessed as appropriate.

Cn1cnc2c(F)c(Nc3ccc(Br)cc3F)c(C(=O)NOCCO)cc21 [binimetinib]
IC50 [1]: 0.012 µM
Anti-tumour activity in xenograft models [2]: broad anti-tumour activity
Inhibition of ERK phosphorylation [3]: markedly inhibits
MTD/recommended phase 2 dose [4]: 45 mg
Response rate [5]: 15%
Changes in C-reactive protein, interferon, IL-10, IL-12p70, IL-1β, IL-6, or IL-8 [6]: no notable changes
Best response of stable disease, patients [7]: 36%
Objective responses among patients with biliary cancer ([7]; 3 of 30 patients with biliary cancer): 10%
Responses in patients with colorectal cancer ([7]; KRAS- or BRAF-mutant cohorts): no responses
Objective responses, number of patients ([7]; all in patients with biliary cancer): Three
Duration of complete response ([7]; biliary cancer): 11.3 months
Duration of partial response ([7]; biliary cancer, two patients): 10.2 months and 17.9 months
Objective responses ([7]; of 91 patients evaluable for response): 3%
Complete responses, number of patients ([7]; patients with biliary cancer): one
Partial responses, number of patients ([7]; patients with biliary cancer): two
Median duration of stable disease ([7]; range, 0.92–11.53 months): 3.94 months
RAUC (accumulation ratio) ([8]; cycle 1 day 15, Total (N=26)): 1.44 (32.8)
RAUC (accumulation ratio) ([8]; cycle 1 day 15, expansion Biliary 60 mg BID (n=7)): 2.50 (NC)
Cmax ([8]; 30 mg BID, cycle 1 day 1, dose-escalation 30 mg BID (n=4)): 327 ng/mL
AUC(0-t) ([8]; 30 mg BID, cycle 1 day 1, dose-escalation 30 mg BID (n=4), intensive sampling, read-out: AUC0–8): 1000 ng·h/mL
Tmax ([8]; 30 mg BID, cycle 1 day 1, dose-escalation 30 mg BID (n=4), median (minimum–maximum), read-out: tmax): 1.51 h
Tmax ([8]; 30 mg BID, cycle 1 day 15, dose-escalation 30 mg BID (n=4), median (minimum–maximum), read-out: tmax): 1.5 h
Cmax ([8]; 30 mg, cycle 1 day 15, dose-escalation 30 mg BID (n=4)): 417 ng/mL
Cmax ([8]; 45 mg BID, cycle 1 day 1, dose-escalation 45 mg BID (n=4)): 241 ng/mL
AUC(0-t) ([8]; 45 mg BID, cycle 1 day 1, dose-escalation 45 mg BID (n=4), intensive sampling, read-out: AUC0–8): 964 ng·h/mL
Tmax ([8]; 45 mg BID, cycle 1 day 1, dose-escalation 45 mg BID (n=4), median (minimum–maximum), read-out: tmax): 2.53 h
Tmax ([8]; 45 mg BID, cycle 1 day 15, dose-escalation 45 mg BID (n=4), median (minimum–maximum), read-out: tmax): 2 h
Cmax ([8]; 45 mg, cycle 1 day 15, dose-escalation 45 mg BID (n=4)): 273 ng/mL
AUC(0-t) ([8]; 45 mg, cycle 1 day 15, dose-escalation 45 mg BID (n=4), read-out: AUC0-8): 1490 ng·h/mL
Cmax ([8]; 60 mg BID, cycle 1 day 1, dose-escalation 60 mg BID (n=7)): 545 ng/mL
AUC(0-t) ([8]; 60 mg BID, cycle 1 day 1, dose-escalation 60 mg BID (n=7), intensive sampling, read-out: AUC0–8): 1710 ng·h/mL
Tmax ([8]; 60 mg BID, cycle 1 day 1, dose-escalation 60 mg BID (n=7), median (minimum–maximum), read-out: tmax): 1 h
Tmax ([8]; 60 mg BID, cycle 1 day 15, dose-escalation 60 mg BID (n=7), median (minimum–maximum), read-out: tmax): 3 h
Cmax ([8]; 60 mg, cycle 1 day 1, expansion Biliary 60 mg BID (n=7)): 365 ng/mL
AUC(0-t) ([8]; 60 mg, cycle 1 day 1, expansion Biliary 60 mg BID (n=7), intensive sampling, read-out: AUC0–8): 1090 ng·h/mL
Tmax ([8]; 60 mg, cycle 1 day 1, expansion Biliary 60 mg BID (n=7), median (minimum–maximum), read-out: tmax): 1.5 h
Cmax ([8]; 60 mg, cycle 1 day 15, dose-escalation 60 mg BID (n=7)): 512 ng/mL
AUC(0-t) ([8]; 60 mg, cycle 1 day 15, dose-escalation 60 mg BID (n=7), read-out: AUC0-8): 1820 ng·h/mL
Cmax ([8]; 60 mg, cycle 1 day 15, expansion Biliary 60 mg BID (n=7)): 594 ng/mL
AUC(0-t) ([8]; 60 mg, cycle 1 day 15, expansion Biliary 60 mg BID (n=7), read-out: AUC0-8): 3760 ng·h/mL
Tmax ([8]; 60 mg, cycle 1 day 15, expansion Biliary 60 mg BID (n=7), median (minimum–maximum), read-out: tmax): 1.5 h
Cmax ([8]; 80 mg BID, cycle 1 day 1, dose-escalation 80 mg BID (n=4)): 687 ng/mL
AUC(0-t) ([8]; 80 mg BID, cycle 1 day 1, dose-escalation 80 mg BID (n=4), intensive sampling, read-out: AUC0–8): 2220 ng·h/mL
Tmax ([8]; 80 mg BID, cycle 1 day 1, dose-escalation 80 mg BID (n=4), median (minimum–maximum), read-out: tmax): 2.02 h
Tmax ([8]; across all dose levels and both sampling schemes, read-out: tmax, median values): 0.5 to 4 h
Tmax ([8]; cycle 1 day 1, Total (N=26), median (minimum–maximum), read-out: tmax): 1.5 h
Tmax ([8]; cycle 1 day 15, Total (N=26), median (minimum–maximum), read-out: tmax): 1.5 h
Pre-dose concentrations on cycle 1 day 15 versus 12 h concentrations on day 1 ([8]; intensive pharmacokinetic sampling): up to threefold higher
Steady state ([8]; limited sampling, 45 and 60 mg BID, no formal steady-state analysis): likely at steady state by cycle 1 day 15
Dose proportionality of exposure ([8]; over the dose range tested, days 1 and 15 of cycle 1): Dose-proportional increases; also recorded: approximately dose proportional
